# Test results as given in the supplement of paper PMC6965134.
# ± gives the standard deviation of the averaged measurements.
# Assay: TIMS collisional cross section (CCS, N2) of the lipid ion; higher = larger ion cross section
# Conditions: ionization mode: positive, one isomer drawn
Structure (SMILES),TIMS collisional cross section (sample type: plasma),TIMS collisional cross section (sample type: Liver),TIMS collisional cross section (sample type: HeLa)
CCCCC/C=C\C/C=C\C/C=C\C/C=C\CCCC(=O)O[C@H](COC(=O)CCCCCCCCCCCCCCCCC)COP(=O)([O-])OCC[N+](C)(C)C [PC 18:0@_20:4] (ion (formula + adduct): [C46H84NO8P+H] 1+),296 Å²,,
CC/C=C\C/C=C\C/C=C\C/C=C\C/C=C\CCCC(=O)O[C@H](COC(=O)CCCCCCCCCCCCCCCCC)COP(=O)([O-])OCC[N+](C)(C)C [PC 18:0@_20:5] (ion (formula + adduct): [C46H82NO8P+H] 1+),295.4 Å²,296.3 Å²,
CCCCC/C=C\C/C=C\C/C=C\C/C=C\CCCCCC(=O)O[C@H](COC(=O)CCCCCCCCCCCCCCCCC)COP(=O)([O-])OCC[N+](C)(C)C [PC 18:0@_22:4] (ion (formula + adduct): [C48H88NO8P+H] 1+),300.7 Å²,,
CCCCC/C=C\C/C=C\C/C=C\C/C=C\C/C=C\CCC(=O)O[C@H](COC(=O)CCCCCCCCCCCCCCCCC)COP(=O)([O-])OCC[N+](C)(C)C [PC 18:0@_22:5] (ion (formula + adduct): [C48H86NO8P+H] 1+),299.3 ± 0.42 Å²,,298.9 Å²
CCCCCC/C=C\CCCCCCCCCC(=O)O[C@H](COC(=O)CCCCCCCCCCCCCCCCC)COP(=O)([O-])OCC[N+](C)(C)C [PC 18:0_18:1] (ion (formula + adduct): [C44H86NO8P+H] 1+),295.2 Å²,,294.7 Å²
CCCCC/C=C\C=C/CCCCCCCCC(=O)O[C@H](COC(=O)CCCCCCCCCCCCCCCCC)COP(=O)([O-])OCC[N+](C)(C)C [PC 18:0_18:2] (ion (formula + adduct): [C44H84NO8P+H] 1+),291.1 Å²,292.8 Å²,
CCCCC/C=C\C/C=C\CCCCCCCCCC(=O)O[C@H](COC(=O)CCCCCCCCCCCCCCCCC)COP(=O)([O-])OCC[N+](C)(C)C [PC 18:0_20:2@] (ion (formula + adduct): [C46H88NO8P+H] 1+),,297.5 Å²,
CCCCC/C=C\C/C=C\C/C=C\C/C=C\CCCC(=O)O[C@H](COC(=O)CCCCCCCCCCCCCCCCC)COP(=O)([O-])OCC[N+](C)(C)C [PC 18:0_20:4] (ion (formula + adduct): [C46H84NO8P+H] 1+),,295.6 Å²,296.2 Å²
CCCCC/C=C\C/C=C\C/C=C\C/C=C\C/C=C\CCC(=O)O[C@H](COC(=O)CCCCCCCCCCCCCCCCC)COP(=O)([O-])OCC[N+](C)(C)C [PC 18:0_22:5] (ion (formula + adduct): [C48H86NO8P+H] 1+),301 Å²,299.3 Å²,
CC/C=C\C/C=C\C/C=C\C/C=C\C/C=C\C/C=C\CCC(=O)O[C@H](COC(=O)CCCCCCCCCCCCCCCCC)COP(=O)([O-])OCC[N+](C)(C)C [PC 18:0_22:6] (ion (formula + adduct): [C48H84NO8P+H] 1+),,297.9 Å²,
CC/C=C\C/C=C\C/C=C\C/C=C\CCCCC(=O)O[C@H](COC(=O)CCCCCCC/C=C\CCCCCCCC)COP(=O)([O-])OCC[N+](C)(C)C [PC 18:1@_18:4] (ion (formula + adduct): [C44H78NO8P+H] 1+),,,289.4 Å²
CCCCC/C=C\C/C=C\C/C=C\C/C=C\CCCC(=O)O[C@H](COC(=O)CCCCCCC/C=C\CCCCCCCC)COP(=O)([O-])OCC[N+](C)(C)C [PC 18:1@_20:4] (ion (formula + adduct): [C46H82NO8P+H] 1+),,,292.7 Å²
CC/C=C\C/C=C\C/C=C\C/C=C\C/C=C\CCCC(=O)O[C@H](COC(=O)CCCCCCCCC/C=C\CCCCCC)COP(=O)([O-])OCC[N+](C)(C)C [PC 18:1@_20:5] (ion (formula + adduct): [C46H80NO8P+H] 1+),,290.9 Å²,290.2 Å²
CC/C=C\C/C=C\C/C=C\C/C=C\C/C=C\CCCCCC(=O)O[C@H](COC(=O)CCCCCCCCC/C=C\CCCCCC)COP(=O)([O-])OCC[N+](C)(C)C [PC 18:1@_22:5] (ion (formula + adduct): [C48H84NO8P+H] 1+),,297 Å²,
CCCCCCC/C=C\CCCCCCCCC(=O)OC[C@H](COP(=O)([O-])OCC[N+](C)(C)C)OC(=O)CCCCCCCC/C=C\CCCCCCC [PC 18:1_18:1] (ion (formula + adduct): [C44H84NO8P+H] 1+),,,292.9 Å²
CCCCCCCC/C=C\C/C=C\CCCCC(=O)O[C@H](COC(=O)CCCCCCC/C=C\CCCCCCCC)COP(=O)([O-])OCC[N+](C)(C)C [PC 18:1_18:2@] (ion (formula + adduct): [C44H82NO8P+H] 1+),,,290.1 Å²
CCCCCCCC/C=C\C/C=C\CCCCC(=O)O[C@H](COC(=O)CCCCCCC/C=C\CCCCCCCC)COP(=O)([O-])OCC[N+](C)(C)C [PC 18:1_18:2] (ion (formula + adduct): [C44H82NO8P+H] 1+),289.8 Å²,,
CCCCC/C=C\C/C=C\CCCCCCCCCC(=O)O[C@H](COC(=O)CCCCCCC/C=C\CCCCCCCC)COP(=O)([O-])OCC[N+](C)(C)C [PC 18:1_20:2] (ion (formula + adduct): [C46H86NO8P+H] 1+),,,295.9 Å²
CCCCCCCC/C=C\C/C=C\C/C=C\CCCC(=O)O[C@H](COC(=O)CCCCCCC/C=C\CCCCCCCC)COP(=O)([O-])OCC[N+](C)(C)C [PC 18:1_20:3] (ion (formula + adduct): [C46H84NO8P+H] 1+),,293.7 Å²,294 Å²
CCCCC/C=C\C/C=C\C/C=C\C/C=C\CCCC(=O)O[C@H](COC(=O)CCCCCCC/C=C\CCCCCCCC)COP(=O)([O-])OCC[N+](C)(C)C [PC 18:1_20:4] (ion (formula + adduct): [C46H82NO8P+H] 1+),294.3 Å²,,

# Second part, the compound after the results:
TIMS collisional cross section (sample type: plasma),TIMS collisional cross section (sample type: Liver),TIMS collisional cross section (sample type: HeLa),Structure (SMILES)
,,304.8 Å²,CCCCCCCC/C=C\CCCCCCCC(=O)OC[C@H](COP(=O)([O-])OCC[N+](C)(C)C)OC(=O)CCCCCCCCC/C=C\CCCCCCCCCC [PC 18:1_22:1@] (ion (formula + adduct): [C48H92NO8P+H] 1+)
,,302.4 Å²,CCCCC/C=C\C/C=C\CCCCCCCCCCCC(=O)O[C@H](COC(=O)CCCCCCC/C=C\CCCCCCCC)COP(=O)([O-])OCC[N+](C)(C)C [PC 18:1_22:2@] (ion (formula + adduct): [C48H90NO8P+H] 1+)
296.5 Å²,,,CC/C=C\C/C=C\C/C=C\C/C=C\C/C=C\C/C=C\CCC(=O)O[C@H](COC(=O)CCCCCCCCC/C=C\CCCCCC)COP(=O)([O-])OCC[N+](C)(C)C [PC 18:1_22:6@] (ion (formula + adduct): [C48H82NO8P+H] 1+)
,295.6 Å²,,CC/C=C\C/C=C\C/C=C\C/C=C\C/C=C\C/C=C\CCC(=O)O[C@H](COC(=O)CCCCCCCCC/C=C\CCCCCC)COP(=O)([O-])OCC[N+](C)(C)C [PC 18:1_22:6] (ion (formula + adduct): [C48H82NO8P+H] 1+)
,284.9 Å²,,CCCCC/C=C\C/C=C\C/C=C\CCCCC(=O)O[C@H](COC(=O)CCCCCCC/C=C\C/C=C\CCCCC)COP(=O)([O-])OCC[N+](C)(C)C [PC 18:2@_18:3] (ion (formula + adduct): [C44H78NO8P+H] 1+)
,290.9 Å²,,CCCCC/C=C\C/C=C\C/C=C\C/C=C\CCCC(=O)O[C@H](COC(=O)CCCCCCC/C=C\C/C=C\CCCCC)COP(=O)([O-])OCC[N+](C)(C)C [PC 18:2@_20:4] (ion (formula + adduct): [C46H80NO8P+H] 1+)
287 Å²,,286.6 Å²,CC/C=C\C/C=C\C/C=C\C/C=C\C/C=C\CCCC(=O)O[C@H](COC(=O)CCCCCCC/C=C\C/C=C\CCCCC)COP(=O)([O-])OCC[N+](C)(C)C [PC 18:2@_20:5] (ion (formula + adduct): [C46H78NO8P+H] 1+)
310.1 Å²,,,CCCCC/C=C\C/C=C\CCCCCCCC(=O)OC[C@H](COP(=O)([O-])OCC[N+](C)(C)C)OC(=O)CCCCCCCCCCCCCCCCCCCCCCC [PC 18:2@_24:0] (ion (formula + adduct): [C50H96NO8P+H] 1+)
286.9 Å²,,287.6 Å²,CCCCCCCCCCCCC/C=C/C=C/C(=O)OC[C@H](COP(=O)([O-])OCC[N+](C)(C)C)OC(=O)/C=C/C=C/CCCCCCCCCCCCC [PC 18:2_18:2] (ion (formula + adduct): [C44H80NO8P+H] 1+)
289.3 Å²,289.9 Å²,,CCCCC/C=C\C/C=C\C/C=C\CCCCC(=O)O[C@H](COC(=O)CCCCCCC/C=C\C/C=C\CCCCC)COP(=O)([O-])OCC[N+](C)(C)C [PC 18:2_18:3@] (ion (formula + adduct): [C44H78NO8P+H] 1+)
283.6 Å²,,,CCCCC/C=C\C/C=C\C/C=C\CCCCC(=O)O[C@H](COC(=O)CCCCCCC/C=C\C/C=C\CCCCC)COP(=O)([O-])OCC[N+](C)(C)C [PC 18:2_18:3] (ion (formula + adduct): [C44H78NO8P+H] 1+)
,294.4 Å²,,CCCCC/C=C\C/C=C\CCCCCCCC(=O)OC[C@H](COP(=O)([O-])OCC[N+](C)(C)C)OC(=O)CCCCCCCCCCCCCCCCCC [PC 18:2_19:0] (ion (formula + adduct): [C45H86NO8P+H] 1+)
,290.1 Å²,,CCCCC/C=C\C/C=C\C/C=C\C/C=C\CCCC(=O)O[C@H](COC(=O)CCCCCCC/C=C\C/C=C\CCCCC)COP(=O)([O-])OCC[N+](C)(C)C [PC 18:2_20:4] (ion (formula + adduct): [C46H80NO8P+H] 1+)
,292.5 Å²,,CC/C=C\C/C=C\C/C=C\C/C=C\C/C=C\C/C=C\CCC(=O)O[C@H](COC(=O)CCCCCCC/C=C\C/C=C\CCCCC)COP(=O)([O-])OCC[N+](C)(C)C [PC 18:2_22:6] (ion (formula + adduct): [C48H80NO8P+H] 1+)
